Assay results reported in patent US9024019B2, “Insecticidal triazinone derivatives” (Syngenta Participations AG, priority 2011, dated 2015).

| melting point | Compound |
| --- | --- |
| 237 to 238 °C | CO/N=C/C1=NNC(=O)N(/N=C/c2cccnc2)C1 |
| 226 to 227 °C | CO/N=C/C1=NNC(=O)N(/N=C/c2cncc(F)c2)C1 |
| 229 °C (dec.) | CO/N=C/C1=NNC(=O)N(/N=C/c2ccc[n+]([O-])c2)C1 |
| 244 to 245 °C | CO/N=C/C1=NNC(=O)N(/N=C/c2cncnc2)C1 |
| 233 to 234 °C | CO/N=C/C1=NNC(=O)N(/N=C/c2cnccn2)C1 |
| 230 to 231 °C | CO/N=C(\C)C1=NNC(=O)N(/N=C/c2cccnc2)C1 |
| 233 to 234 °C | CCO/N=C/C1=NNC(=O)N(/N=C/c2cccnc2)C1 |
| 229 °C (dec.) | CN(C)/N=C/C1=NNC(=O)N(/N=C/c2cccnc2)C1 |
| 212 °C (dec.) | CC1(C)CC(C2=NNC(=O)N(/N=C/c3cccnc3)C2)=NO1 |
| 260 °C (dec.) | CC1(C)CC(C2=NNC(=O)N(/N=C/c3cncc(F)c3)C2)=NO1 |
| 270 °C (dec.) | O=C1NN=C(C2=NOC(C(F)(F)F)(C(F)(F)F)C2)CN1/N=C/c1cccnc1 |
| 290 °C (dec.) | O=C1NN=C(C2=NOC(C(F)(F)F)(C(F)(F)F)C2)CN1/N=C/c1cncc(F)c1 |
